Publication PMC7023430, “4-Aminobenzoic Acid Derivatives: Converting Folate Precursor to Antimicrobial and Cytotoxic Agents” (Biomolecules, 2019)
Converted amounts (≈) assume the structure as drawn. Like-named read-outs stand apart in the source and are kept apart here.

How the values were obtained:
[1] = tested on: Trichophyton interdigitale 445; assay: Antifungal microdilution broth method, T. interdigitale; assay type: cell-based
Method in brief: (§1)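 Panel covers five yeasts and three filamentous fungi tested by a slightly modified EUCAST microdilution protocol. Growth medium is glucose-supplemented (2%) RPMI-1640 with L-glutamine at pH 7.0 (MOPS). Endpoints are judged visually from duplicate runs.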

[2] = tested on: Candida krusei E28; assay: Antifungal microdilution broth method, C. krusei; assay type: cell-based; conditions: Pichia kudriavzevii
Method in brief: as §1

[3] = tested on: Staphylococcus epidermidis H 6966/08; assay: Antibacterial microdilution broth method, S. epidermidis; assay type: cell-based; conditions: Staphylococcus epidermidis, H6966/08, S. epidermidis
[4] = tested on: Enterococcus faecalis ATCC 29212, CCM 4224; assay: Antibacterial microdilution broth method, E. faecalis; assay type: cell-based; conditions: Enterococcus faecalis
[5] = tested on: ESBL-positive Klebsiella pneumoniae J 14368/08
[6] = tested on: Klebsiella pneumoniae D 11750/08; assay: Antibacterial microdilution broth method, K. pneumoniae; conditions: K. pneumoniae D 11750/08; for MIC KP 24 h: 24 h incubation; for MIC KP 48 h: 48 h incubation
[7] = tested on: Candida tropicalis 156; assay: Antifungal microdilution broth method, C. tropicalis; assay type: cell-based
Method in brief: as §1

[8] = tested on: Trichosporon asahii 1188; assay: Antifungal microdilution broth method, T. asahii; assay type: cell-based
Method in brief: as §1

[9] = tested on: Aspergillus fumigatus 231; assay: Antifungal microdilution broth method, A. fumigatus; assay type: cell-based
Method in brief: as §1

[10] = tested on: Mycobacterium tuberculosis H37Rv (331/88); assay: Antimycobacterial micromethod in Šula's medium, M. tuberculosis; assay type: cell-based
[11] = tested on: M. kansasii 6509/96 (clinical isolate); assay: Antimycobacterial micromethod in Šula's medium, M. kansasii 6509/96; assay type: cell-based; conditions: Mycobacterium kansasii
[12] = tested on: Escherichia coli ATCC 25922, CCM 3954; assay: Antibacterial microdilution broth method, E. coli; assay type: cell-based; conditions: Escherichia coli
[13] = tested on: methicillin-resistant Staphylococcus aureus ATCC 43300, CCM 4750 (MRSA); assay: Antibacterial microdilution broth method, MRSA; assay type: cell-based; conditions: Staphylococcus aureus
[14] = tested on: Mycobacterium avium 330/88; assay: Antimycobacterial micromethod in Šula's medium, M. avium; assay type: cell-based
[15] = tested on: Mycobacterium kansasii 235/80; assay: Antimycobacterial micromethod in Šula's medium, M. kansasii 235/80; assay type: cell-based
[16] = tested on: Lichtheimia corymbifera 272; assay: Antifungal microdilution broth method, L. corymbifera; assay type: cell-based
Method in brief: as §1

[17] = 24 h incubation, read-out: MIC SE 24 h
[18] = 48 h incubation, read-out: MIC SE 48 h
[19] = 24 h incubation, read-out: MIC EF 24 h
[20] = 48 h incubation, read-out: MIC EF 48 h
[21] = 336 h, 14 days incubation at 37 °C, read-out: MIC Mtb. 331/88 14 d
[22] = 504 h, 21 days incubation at 37 °C, read-out: MIC Mtb. 331/88 21 d
[23] = 168 h, 7 days incubation at 37 °C, read-out: MIC M. kansasii 6509/96 7 d
[24] = 336 h, 14 days incubation at 37 °C, read-out: MIC M. kansasii 6509/96 14 d
[25] = 504 h, 21 days incubation at 37 °C, read-out: MIC M. kansasii 6509/96 21 d
[26] = 24 h incubation, read-out: MIC EC 24 h
[27] = 48 h incubation, read-out: MIC EC 48 h
[28] = 24 h incubation, read-out: MIC MRSA 24 h
[29] = 48 h incubation, read-out: MIC MRSA 48 h
[30] = 330/88, 336 h, 14 days incubation at 37 °C, read-out: MIC M. avium 330/88 14 d
[31] = 330/88, 504 h, 21 days incubation at 37 °C, read-out: MIC M. avium 330/88 21 d
[32] = 235/80, 168 h, 7 days incubation at 37 °C, read-out: MIC M. kansasii 235/80 7 d
[33] = 235/80, 336 h, 14 days incubation at 37 °C, read-out: MIC M. kansasii 235/80 14 d
[34] = 235/80, 504 h, 21 days incubation at 37 °C, read-out: MIC M. kansasii 235/80 21 d

Structure (SMILES) | MIC ([1]; 72 h, read-out: MIC TI 72 h) | MIC ([1]; 120 h, read-out: MIC TI 120 h) | MIC ([2]; 24 h, read-out: MIC CK 24 h) | MIC ([2]; 48 h, read-out: MIC CK 48 h) | MIC [3, 17] | MIC [3, 18] | MIC [4, 19] | MIC [4, 20] | MIC KP-E 24 h [5] | MIC KP-E 48 h [5] | MIC KP 24 h [6] | MIC KP 48 h [6] | MIC ([7]; 24 h, read-out: MIC CT 24 h) | MIC ([7]; 48 h, read-out: MIC CT 48 h) | MIC ([8]; 24 h, read-out: MIC TA 24 h) | MIC ([8]; 48 h, read-out: MIC TA 48 h) | MIC ([9]; 24 h, read-out: MIC AF 24 h) | MIC ([9]; 48 h, read-out: MIC AF 48 h) | MIC [10, 21] | MIC [10, 22] | also measured
CC(C)(C)c1ccc(O)c(C=Nc2ccc(C(=O)O)cc2)c1 [1j, 4-{[5-(Tert-butyl)-2-hydroxybenzylidene]amino}benzoic acid] | > 500 µM | > 500 µM | > 500 µM | > 500 µM | > 500 µM | > 500 µM | > 500 µM | > 500 µM | >500 µM | >500 µM | >500 µM | >500 µM | > 500 µM | > 500 µM | > 500 µM | > 500 µM | > 500 µM | > 500 µM | 250 µM (≈ 74.3 µg/mL) | 250 µM (≈ 74.3 µg/mL) | MIC [11, 23]: 250 µM (≈ 74.3 µg/mL); MIC [11, 24]: 250 µM (≈ 74.3 µg/mL); MIC [11, 25]: 500 µM (≈ 149 µg/mL); MIC [12, 26]: > 500 µM; MIC [12, 27]: > 500 µM; MIC [13, 28]: > 500 µM; MIC [13, 29]: > 500 µM; MIC [14, 30]: 1000 µM (≈ 297 µg/mL); MIC [14, 31]: > 1000 µM; MIC [15, 32]: 125 µM (≈ 37.2 µg/mL); MIC [15, 33]: 125 µM (≈ 37.2 µg/mL); MIC [15, 34]: 250 µM (≈ 74.3 µg/mL); MIC ([16]; 24 h, read-out: MIC LC 24 h): > 500 µM; MIC ([16]; 48 h, read-out: MIC LC 48 h): > 500 µM
O=C(O)c1ccc(N=Cc2c(O)cccc2Cl)cc1 [1k, 4-[(2-Chloro-6-hydroxybenzylidene)amino]benzoic acid] | 125 µM (≈ 34.5 µg/mL) | 125 µM (≈ 34.5 µg/mL) | 125 µM (≈ 34.5 µg/mL) | 250 µM (≈ 68.9 µg/mL) | > 500 µM | > 500 µM | > 500 µM | > 500 µM | >500 µM | >500 µM | >500 µM | >500 µM | 62.5 µM (≈ 17.2 µg/mL) | 125 µM (≈ 34.5 µg/mL) | 125 µM (≈ 34.5 µg/mL) | > 125 µM | > 125 µM | > 125 µM | 250 µM (≈ 68.9 µg/mL) | 500 µM (≈ 138 µg/mL) | MIC [11, 23]: 250 µM (≈ 68.9 µg/mL); MIC [11, 24]: 250 µM (≈ 68.9 µg/mL); MIC [11, 25]: 500 µM (≈ 138 µg/mL); MIC [12, 26]: > 500 µM; MIC [12, 27]: > 500 µM; MIC [13, 28]: > 500 µM; MIC [13, 29]: > 500 µM; MIC [14, 30]: 500 µM (≈ 138 µg/mL); MIC [14, 31]: 1000 µM (≈ 276 µg/mL); MIC [15, 32]: 250 µM (≈ 68.9 µg/mL); MIC [15, 33]: 500 µM (≈ 138 µg/mL); MIC [15, 34]: 500 µM (≈ 138 µg/mL); MIC ([16]; 24 h, read-out: MIC LC 24 h): > 125 µM; MIC ([16]; 48 h, read-out: MIC LC 48 h): > 125 µM
O=C(O)c1ccc(N=Cc2ccc(Cl)cc2O)cc1 [1l, 4-[(4-Chloro-2-hydroxybenzylidene)amino]benzoic acid] | 500 µM (≈ 138 µg/mL) | > 500 µM | 500 µM (≈ 138 µg/mL) | > 500 µM | > 500 µM | > 500 µM | > 500 µM | > 500 µM | >500 µM | >500 µM | >500 µM | >500 µM | 500 µM (≈ 138 µg/mL) | > 500 µM | 500 µM (≈ 138 µg/mL) | > 500 µM | 250 µM (≈ 68.9 µg/mL) | > 500 µM | 250 µM (≈ 68.9 µg/mL) | 500 µM (≈ 138 µg/mL) | MIC [11, 23]: 250 µM (≈ 68.9 µg/mL); MIC [11, 24]: 250 µM (≈ 68.9 µg/mL); MIC [11, 25]: 500 µM (≈ 138 µg/mL); MIC [12, 26]: > 500 µM; MIC [12, 27]: > 500 µM; MIC [13, 28]: > 500 µM; MIC [13, 29]: > 500 µM; MIC [14, 30]: 1000 µM (≈ 276 µg/mL); MIC [14, 31]: 1000 µM (≈ 276 µg/mL); MIC [15, 32]: 250 µM (≈ 68.9 µg/mL); MIC [15, 33]: 500 µM (≈ 138 µg/mL); MIC [15, 34]: 500 µM (≈ 138 µg/mL); MIC ([16]; 24 h, read-out: MIC LC 24 h): > 500 µM; MIC ([16]; 48 h, read-out: MIC LC 48 h): > 500 µM
